In patent US8394969B2, “Cyclic benzimidazole derivatives useful as anti-diabetic agents” (Merck Sharp & Dohme Corp., priority 2008, dated 2013):
Counter-ions that a name gives are not always drawn.

These compounds were tested against recombinant human AMPK complex 1 (containing α1β1γ1) (Homo sapiens, UniProt Q13131+Q9Y478) (assay: […] (in vitro AMPK activation assay)). Settings: read-out: % Maximum AMP Activation of human AMPK Complex 1, recombinant human AMPK complex 1 (α1β1γ1); basal activity subtracted.
Sequence of recombinant human AMPK complex 1 (containing α1β1γ1) (Q13131 whole entry): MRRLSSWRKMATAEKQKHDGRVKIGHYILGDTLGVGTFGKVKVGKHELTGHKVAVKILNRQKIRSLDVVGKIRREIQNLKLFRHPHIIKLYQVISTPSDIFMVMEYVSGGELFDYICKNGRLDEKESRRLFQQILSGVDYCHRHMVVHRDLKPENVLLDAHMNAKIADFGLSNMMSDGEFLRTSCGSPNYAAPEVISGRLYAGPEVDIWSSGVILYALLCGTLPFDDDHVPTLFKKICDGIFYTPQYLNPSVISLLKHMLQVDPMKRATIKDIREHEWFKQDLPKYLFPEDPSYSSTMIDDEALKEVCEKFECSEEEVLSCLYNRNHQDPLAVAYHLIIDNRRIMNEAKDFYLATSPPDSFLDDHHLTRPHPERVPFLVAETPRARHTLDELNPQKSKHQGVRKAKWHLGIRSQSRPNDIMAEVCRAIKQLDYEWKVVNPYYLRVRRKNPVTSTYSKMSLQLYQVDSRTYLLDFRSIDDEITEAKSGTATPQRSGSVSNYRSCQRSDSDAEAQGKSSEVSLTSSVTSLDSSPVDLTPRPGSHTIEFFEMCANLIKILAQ
Sequence of recombinant human AMPK complex 1 (containing α1β1γ1) (Q9Y478 whole entry): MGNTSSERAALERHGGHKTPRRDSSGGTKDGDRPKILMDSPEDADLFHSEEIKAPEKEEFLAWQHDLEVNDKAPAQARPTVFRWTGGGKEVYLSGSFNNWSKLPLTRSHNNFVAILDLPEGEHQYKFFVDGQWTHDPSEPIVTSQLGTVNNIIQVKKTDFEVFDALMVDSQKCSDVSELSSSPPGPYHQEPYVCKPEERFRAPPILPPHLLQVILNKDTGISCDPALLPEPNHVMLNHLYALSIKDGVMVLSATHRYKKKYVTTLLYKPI
Sequence of recombinant human AMPK complex 1 (containing α1β1γ1) (P54619 whole entry partner): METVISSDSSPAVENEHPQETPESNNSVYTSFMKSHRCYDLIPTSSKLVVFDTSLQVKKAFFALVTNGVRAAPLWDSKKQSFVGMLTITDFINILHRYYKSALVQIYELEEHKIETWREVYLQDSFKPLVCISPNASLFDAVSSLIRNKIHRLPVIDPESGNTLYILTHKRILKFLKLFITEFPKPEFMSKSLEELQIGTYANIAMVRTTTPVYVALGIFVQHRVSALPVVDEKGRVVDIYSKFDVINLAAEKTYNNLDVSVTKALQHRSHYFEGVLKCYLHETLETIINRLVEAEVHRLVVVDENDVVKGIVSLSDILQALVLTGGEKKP
Type: biochemical

SMILES | Emax [%]
COc1cccc(-c2cc3nc(Oc4ccc(C)c(C(=O)O)c4)[nH]c3cc2Cl)c1 [Example 338, Ammonium 5-{[6-chloro-5-(3-methoxyphenyl)-1H-benzimidazol-2-yl]oxy}-2-methylbenzoate] | > 80

Same assay, conditions: recombinant human AMPK complex 1 (α1β1γ1); basal activity subtracted; read-out: % Maximum AMP Activation of human AMPK Complex 1

SMILES | Emax [%]
Cc1ccc(Oc2nc3cc(-c4ccc5c(c4)[nH]c4ccccc45)c(Cl)cc3[nH]2)cc1C(=O)O [Example 147, 5-[5-(9H-Carbazol-2 yl)-6-chloro-1H-benzoimidazol-2-yloxy]-2-methyl-benzoic acid] | > 80
O=C(O)c1ccnc(Oc2nc3cc(-c4ccc(-c5ccccc5)cc4)c(Cl)cc3[nH]2)c1 [Example 215, 2-(5-Biphenyl-4-yl-6-chloro-1H-benzoimidazol-2-yloxy)-isonicotinic acid] | > 80
NC(=O)Cc1cccc(Oc2nc3cc(C#Cc4ccccc4)c(Cl)cc3[nH]2)c1 [Example 23, 2-[3-(6-Chloro-5-phenylethynyl-1H-benzoimidazol-2-yloxy)-phenyl]-acetamide] | > 80
Cc1ccc(Oc2nc3cc(-c4cc5ccccc5s4)c(Cl)cc3[nH]2)cc1C(=O)O [Example 355, 5-(5-Benzo[b]thiophen-2-yl-6-chloro-1H-benzoimidazol-2-yloxy)-2-methyl-benzoic acid] | > 80
Cc1ccc(Oc2nc3cc(-c4ccc(C5(O)CC5)cc4)c(Cl)cc3[nH]2)cc1C(=O)O [Example 264, 5-{6-Chloro-5-[4-(1-hydroxy-cyclopropyl)-phenyl]-1H-benzoimidazol-2-yloxy}-2-methyl-benzoic acid] | > 80
Cc1ccc(Oc2nc3cc(-c4ccc5c(ccn5CC5CC5)c4)c(Cl)cc3[nH]2)cc1C(=O)O [Example 252, 5-[6-Chloro-5-(1-cyclopropylmethyl-1H-indol-5-yl)-1H-benzoimidazol-2-yloxy]-2-methyl-benzoic acid] | > 80
O=C(O)C(O)c1cccc(Oc2nc3cc(-c4ccc(-c5ccccc5)cc4)c(Cl)cc3[nH]2)c1 (stereo not drawn) [Example 19] | > 80
Cc1ccc(Oc2nc3cc(C#Cc4ccc(CCO)cc4)c(Cl)cc3[nH]2)cc1C(=O)O [Example 69, 5-{6-chloro-5-[4-(2-hydroxy-ethyl)-phenylethynyl]-1H-benzoimidazol-2-yloxy}-2-methyl-benzoic acid] | > 80
Cc1ccc(Oc2nc3cc(-c4ccc(C(N)=O)cc4)c(Cl)cc3[nH]2)cc1C(=O)O [Example 242, 5-[5-(4-Carbamoyl-phenyl)-6-chloro-1H-benzoimidazol-2-yloxy]-2-methyl-benzoic acid] | > 80
COC(=O)C1(c2ccc(Oc3nc4cc(-c5ccc(-c6ccccc6)cc5)c(Cl)cc4[nH]3)cc2)CC1 [Example 6, 1-[4-(5-Biphenyl-4-yl-6-chloro-1H-benzoimidazol-2-yloxy)-phenyl]-cyclopropanecarboxylic acid methyl ester] | > 80
O=C(O)c1ccc(COc2nc3cc(-c4ccc(-c5ccccc5)cc4)c(Cl)cc3[nH]2)cc1 [Example 226, 4-(5-Biphenyl-4-yl-6-chloro-1H-benzoimidazol-2-yloxymethyl)-benzoic acid] | > 80
Cc1ccc(Oc2nc3cc(-c4ccc5c(ccc(=O)n5C)c4)c(Cl)cc3[nH]2)cc1C(=O)O [Example 234, 5-[6-Chloro-5-(1-methyl-2-oxo-1,2-dihydro-quinolin-6-yl)-1H-benzoimidazol-2-yloxy]-2-methyl-benzoic acid] | > 80
Cc1ccc(Oc2nc3cc(C#Cc4ccc(C5(O)CC5)cc4)c(Cl)cc3[nH]2)cc1C(=O)O [Example 89, 5-{6-Chloro-5-[4-(1-hydroxy-cyclopropyl)-phenylethynyl]-1H-benzoimidazol-2-yloxy}-2-methyl-benzoic acid] | > 80
Cc1ccc(Oc2nc3cc(C#CC(C)(C)O)c(Cl)cc3[nH]2)cc1C(=O)O [Example 154, 5-[6-Chloro-5-(3-hydroxy-3-methyl-but-1-ynyl)-1H-benzoimidazol-2-yloxy]-2-methyl-benzoic acid] | > 80
Cc1ccc(Oc2nc3cc(-c4ccc(N5CCN(C(=O)OC(C)(C)C)CC5)nc4)c(Cl)cc3[nH]2)cc1C(=O)O [Example 175, 4-{5-[2-(3-Carboxy-4-methyl-phenoxy)-6-chloro-1H-benzoimidazol-5-yl]-pyridin-2-yl}-piperazine-1-carboxylic acid tert-butyl ester] | > 80
Cc1ccc(Oc2nc3cc(-c4ccc(-c5ccc(O)nc5)cc4)c(Cl)cc3[nH]2)cc1C(=O)O [Example 188, 5-({6-chloro-5-[4-(6-hydroxypyridin-3-yl)phenyl]-1H-benzimidazol-2-yl}oxy)-2-methylbenzoic acid] | > 80
Cc1ccc(Oc2nc3cc(-c4ccc(N5CCCC5=O)cc4)c(Cl)cc3[nH]2)cc1C(=O)O [Example 350, 2-(3-carboxy-4-methylphenoxy)-6-chloro-5-[4-(2-oxopyrrolidin-1-yl)phenyl]-1H-3,1-benzimidazol-3-ium trifluoroacetate] | > 80

SMILES | Emax [%]
Cc1ccc(Oc2nc3cc(C#Cc4ccc(O)cc4)c(Cl)cc3[nH]2)cc1C(=O)O [Example 116, 5-[6-Chloro-5-(4-hydroxy-phenylethynyl)-1H-benzoimidazol-2-yloxy]-2-methyl-benzoic acid] | > 80
Cc1ccc(Oc2nc3cc(-c4ccc(C(C)C)cc4)c(Cl)cc3[nH]2)cc1C(=O)O [Example 352, 5-[6-Chloro-5-(4-isopropyl-phenyl)-1H-benzoimidazol-2-yloxy]-2-methyl-benzoic acid] | > 80
Cc1ccc(Oc2nc3cc(-c4ccc5c(c4)CCNC5=O)c(Cl)cc3[nH]2)cc1C(=O)O [Example 237, 5-[6-Chloro-5-(1-oxo-1,2,3,4-tetrahydro-isoquinolin-6-yl)-1H-benzoimidazol-2-yloxy]-2-methyl-benzoic acid] | > 80
COc1cc(C(=O)O)ccc1C#Cc1cc2nc(Oc3ccc(C)c(C(=O)O)c3)[nH]c2cc1Cl [Example 127, 5-({5-[(4-carboxy-2-methoxyphenyl)ethynyl]-6-chloro-1H benzimidazol-2-yl}oxy)-2-methylbenzoic acid] | > 80
Cc1ccc(Oc2nc3cc(C#Cc4ccc(-c5ncc[nH]5)cc4)c(Cl)cc3[nH]2)cc1C(=O)O [Example 73, 5-{6-Chloro-5-[4-(1H-imidazol-2-yl)-phenylethynyl]1H-benzoimidazol-2-yloxy}-2-methyl-benzoic acid] | > 80
Cc1ccc(Oc2nc3cc(-c4ccc(N(C)C)c(C(F)(F)F)c4)c(Cl)cc3[nH]2)cc1C(=O)O [Example 295, 2-(3-carboxy-4-methylphenoxy)-6-chloro-5-[4-(dimethylamino)-3-(trifluoromethyl)phenyl]-1H-3,1-benzimidazol-3-ium chloride] | > 80
Cc1ccc(Oc2nc3cc(-c4ccc(C(C)(C)C#N)cc4)c(Cl)cc3[nH]2)cc1C(=O)O [Example 239, 5-{6-Chloro-5-[4-(cyano-dimethyl-methyl)-phenyl]-1H-benzoimidazol-2-yloxy}-2-methyl-benzoic acid] | > 80
Cc1ccc(Oc2nc3cc(-c4ccc5c(ccn5CC(F)(F)F)c4)c(Cl)cc3[nH]2)cc1C(=O)O [Example 351, 5-{6-Chloro-5-[1-(2,2,2-trifluoro-ethyl)-1H-indol-5-yl]-1H-benzoimidazol-2-yloxy}-2-methyl-benzoic acid] | > 80
Cc1ccc(Oc2nc3cc(-c4ccc5c(C)cn(C(=O)OC(C)(C)C)c5c4)c(Cl)cc3[nH]2)cc1C(=O)O [Example 290, 6-[2-(3-Carboxy-4-methyl-phenoxy)-6-chloro-1H-benzoimidazol-5-yl]-3-methyl-indole-1-carboxylic acid tert butyl ester] | > 80
COC(=O)c1cc(Oc2nc3cc(-c4ccc(-c5ccccc5F)cc4)c(Cl)cc3[nH]2)ccc1C [Example 195, Methyl 5-{[6-chloro-5-(2′-fluorobiphenyl-4-yl)-1H-benzimidazol-2-yl]oxy}-2-methylbenzoate] | > 80
COC(=O)Cn1c(Oc2ccc(C)c(C(=O)OC)c2)nc2cc(-c3ccc(-c4ccccc4)cc3)c(Cl)cc21 [Example 223, 5-(5-Biphenyl-4-yl-6-chloro-1-methoxycarbonyl-methyl-1H-benzoimidazol-2-yloxy)-2-methyl-benzoic acid methyl ester] | > 80
Cc1ccc(Oc2nc3cc(-c4ccc(-c5ccccc5)s4)c(Cl)cc3[nH]2)cc1C(=O)O [Example 359, 5-{6-Chloro-5-(5-phenyl-thiophen-2-yl)-1H-benzoimidazol-2-yloxy}-2-methyl-benzoic acid] | > 80
Cc1cc(Oc2nc3cc(-c4ccc(-c5ccccc5)cc4)c(Cl)cc3[nH]2)c(C)c(C(=O)O)c1 [Example 213, 3-(5-Biphenyl-4-yl-6-chloro-1H-benzoimidazol-2-yloxy)-2,5-dimethyl-benzoic acid] | > 80
O=C(O)c1cc(Oc2nc3cc(-c4ccc(-c5ccccc5)cc4)c(Cl)cc3[nH]2)ccc1O [Example 28, 5-(5-Biphenyl-4-yl-6-chloro-1H-benzoimidazol-2-yloxy)-2-hydroxy-benzoic acid] | > 80
Cc1ccc(Oc2nc3cc(CCc4ccccc4)c(Cl)cc3[nH]2)cc1C(=O)O [Example 51, 5-(6-Chloro-5-phenethyl-1H-benzoimidazol-2-yloxy)-2-methyl-benzoic acid] | > 80
Cc1ccc(Oc2nc3cc(-c4ccc5cnccc5c4)c(Cl)cc3[nH]2)cc1C(=O)O [Example 280, 5-(6-Chloro-5-isoquinolin-6-yl-1H-benzoimidazol-2-yloxy)-2-methyl-benzoic acid] | > 80
O=C(O)c1cc(Oc2nc3cc(-c4ccccc4O)c(Cl)cc3[nH]2)ccc1Cl [Example 59, 2-Chloro-5-[6-chloro-5-(2-hydroxy-phenyl)-1H-benzoimidazol-2-yloxy]-benzoic acid] | > 80

Same assay, conditions: recombinant human AMPK complex 1 (α1β1γ1); read-out: EC50

SMILES | EC50 [nM]
Cc1ccc(Oc2nc3cc(-c4ccc(-c5ccc(=O)n(C)c5)cc4)c(Cl)cc3[nH]2)cc1C(=O)O [Example 68, 5-({6-chloro-5-[4-(1-methyl-6-oxo-1,6-dihydropyridin-3-yl)phenyl]-1H-benzimidazol-2-yl}oxy)-2-methylbenzoic acid] | 7
